Data set [1] relates to normal mice. Description: Measurement of spontaneous motor activity. It is filed as in vivo, mouse. Conditions: normal ddY mice, diosgenin 10 μmol/kg/day i.p., vs vehicle. How it is done:
(§1) Diosgenin (Wako Pure Chemical Industries, Ltd., Osaka, Japan) was dissolved in ethanol at 10 times the final concentration to give a stock solution, and the stock solution was diluted in a 5% aqueous solution of glucose to the final concentration. The diosgenin solution was intraperitoneally administered to normal mice (ddY mice, male, 6 weeks old) once a day (10 μmol/kg/day) for 5 or 6 days. One hour after the last administration, each mouse was housed in a separate open-field box made of polyvinyl chloride (33 cm×28 cm; height: 26.5 cm), habituated to the environment for 10 minutes, and used in the test.
The spontaneous motor activity was evaluated based on the distance each mouse traveled in an open field during 10 minutes.

The test system of data set [2] is normal mice. Description: Novel object recognition test in normal mice. In kind it is in vivo, mouse. As to the method:
as §1
Using the mice of Example 8 and Comparative Example 11, a novel object recognition test was performed to evaluate the object recognition memory. Testing was carried out in a dimly illuminated room (100 lux). The test was performed as described in Joyashiki, E. et sl., Int J Neurosci, 121, 181-190, 2011 and Tohda, C. et al., Int J Neurosci, 121, 641-648, 2011, written by the inventors and others, except that the time interval between a training session and a test session was 48 hours. As a locomotion index, the path of each mouse was tracked using a digital camera system. The distance each mouse traveled during the 10 minutes was analyzed as locomotion activity with EthoVision 3.0 (Noldus, Wageningen, The Netherlands).
The diosgenin solution was intraperitoneally administered to normal mice (C57BL/6, male, 8 weeks old) (100 μmol/kg/day) for 14 days. On the day after the 14th administration, the mice were used in the test.
Using the mice of Example 9 and Comparative Example 12, the novel object recognition test was performed. The test was performed under the conditions as described above.
Dioscin in an amount of 30 μmol/kg/day was orally administered to normal mice (ddY mice, male, 6 weeks old) for 4 days. Dioscin (Chromadex, Irvine, Calif., USA) was dissolved in ethanol at 10 times the final concentration to give a stock solution, and the stock solution was diluted in a 5% aqueous solution of glucose to the final concentration. […]

For data set [3], the target named is T1, 1,25D3-MARRS (Mus musculus, UniProt P27773).
T1 construct: endogenous in cells; host or cells: mouse cortical neuron primary culture (ddY, E14), cell lysate
T1 sequence (P27773 25-505): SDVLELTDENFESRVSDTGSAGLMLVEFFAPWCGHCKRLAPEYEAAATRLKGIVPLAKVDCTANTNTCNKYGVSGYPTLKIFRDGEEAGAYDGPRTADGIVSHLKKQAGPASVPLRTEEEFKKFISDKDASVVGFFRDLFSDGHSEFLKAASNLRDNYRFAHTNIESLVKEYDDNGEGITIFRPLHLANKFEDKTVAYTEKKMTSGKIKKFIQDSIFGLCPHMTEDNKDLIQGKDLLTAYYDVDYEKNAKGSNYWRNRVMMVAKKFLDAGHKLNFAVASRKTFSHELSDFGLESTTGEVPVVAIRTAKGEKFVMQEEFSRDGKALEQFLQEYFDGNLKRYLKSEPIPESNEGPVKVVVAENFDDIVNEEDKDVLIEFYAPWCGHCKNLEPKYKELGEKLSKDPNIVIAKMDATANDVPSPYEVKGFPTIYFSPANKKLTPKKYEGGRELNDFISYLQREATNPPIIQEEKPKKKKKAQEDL
Description: Identification of the target protein for diosgenin (thermolysin proteolysis of lysate, LC/MS/MS). It is filed as binding. Conditions: mouse cortical neuron lysate, band thicker than in vehicle-treated lysate. How it is done:
A mouse cortical neuron primary culture (ddY, E14) was maintained for 24 hours without any drug treatment. The cells were lysed with M-PER (Thermo Scientific) supplemented with protease and phosphatase inhibitors. After centrifugation (20,000×g) for 15 minutes, the protein concentration of the lysates was determined using Quick Start (Bio-Rad Laboratories, Hercules, Calif., USA). The cell lysate (5.6 μg each) was added to 2 μL of a vehicle solution of 10 mM diosgenin and incubated at 4° C. for 30 minutes. The mixture was proteolyzed using 7.5 μg of thermolysin in a reaction buffer [50 mM Tris-HCl (pH 8.0), 50 mM NaCl, and 10 mM CaCl2] at room temperature for 10 minutes. To stop the proteolysis, 0.5 M EDTA (pH 8.0) was added to each sample at a ratio of 1:10. The samples were then mixed well and placed on ice. The reaction samples were electrophoresed using a 5 to 20% real gel plate (Bio Craft, Tokyo, Japan). The separated proteins were stained using a negative gel stain MS kit (Wako). The bands in the diosgenin-treated lysate that were thicker than those in the vehicle-treated lysate were cut out and prepared for mass spectrometry analysis. After alkylation using iodoacetamide and in-gel digestion by trypsin, the supernatants were analyzed by nano-LC/MS/MS using LTQ Orbitrap XL (ThermoFisher). […]

Data set [4] relates to rat cortical neurons (SD E18). Description: Axon density after Aβ (1-42)-induced axonal atrophy with 1,25D3-MARRS neutralizing antibody. It is filed as cell-based. Conditions: after Aβ (1-42) for 3 days; Ab099 clone 1:500; diosgenin 0.1 μM or 1 μM for 5 days. As to the method:
Aβ (1-42) was incubated at 37° C. for four days for aggregation beforehand. […] After the 3-day treatment, a control antibody (normal rabbit IgG, 1:5000) was added to the cells, and the cells were incubated for 10 minutes and further treated with diosgenin (0.1 μM) for 5 days.
Seven to nine images were captured.

For `C[C@@H]1CC[C@@]2(OC1)O[C@H]1C[C@H]3[C@@H]4CC=C5C[C@@H](O)CC[C@]5(C)[C@H]4CC[C@]3(C)[C@H]1[C@@H]2C` [diosgenin], the “spontaneous motor activity (distance traveled in an open field during 10 minutes)” value in data set [1] is recorded as “no significant difference”. In addition, the object recognition memory entry in data set [2] (normal C57BL/6 mice, diosgenin 100 μmol/kg/day i.p. 14 days) is listed as “significantly improved”. Also, the “behavior index of exploratory behavior for the novel object” value in data set [2] (normal ddY mice, diosgenin 10 μmol/kg/day i.p. 5 or 6 days, 48 hours training-test interval) is “higher than 50%”. The “direct target protein identified” value in data set [3] was “direct target protein of diosgenin was 1,25D3-MARRS”. The “diosgenin-induced axonal growth in cells where 1,25D3-MARRS was inhibited by the neutralizing antibody” value in data set [4] is “significantly suppressed”.

(Values after US20150126464A1, “THERAPEUTIC DRUG AND THERAPEUTIC METHOD FOR NEUROLOGICAL DISEASES INCLUDING ALZHEIMER'S DISEASE ASSOCIATED WITH 1,25D3-MARRS” (priority 2013, published 2015).)
